From the kinase profiling compilation of Christmann-Franck et al. (2016)

What was measured:
Test in all cases: KINOMEscan competition binding
Settings in all cases: compound 10.0 µM
CDK7 (human) = CDK7 (human) (UniProt P50613)
PHKG1 (human) = PHKG1 (human) (UniProt Q16816)
CSNK1D (human) = CSNK1D (human) (UniProt P48730)
ACVR1 (human) = ACVR1 (human) (UniProt Q04771)
ACVR2B (human) = ACVR2B (human) (UniProt Q13705)
MYO3A (human) = MYO3A (human) (UniProt Q8NEV4)
PAK2 (human) = PAK2 (human) (UniProt Q13177)
NUAK1 (human) = NUAK1 (human) (UniProt O60285)
ULK1 (human) = ULK1 (human) (UniProt O75385)
PTK2B (human) = PTK2B (human) (UniProt Q14289)
DCLK2 (human) = DCLK2 (human) (UniProt Q8N568)
TGFBR1 (human) = TGFBR1 (human) (UniProt P36897)
MAP3K4 (human) = MAP3K4 (human) (UniProt Q9Y6R4)
MAP3K11 (human) = MAP3K11 (human) (UniProt Q16584)
[1] = target: JAK2 JH1 catalytic (human) (UniProt O60674)
STK25 (human) = STK25 (human) (UniProt O00506)
DAPK1 (human) = DAPK1 (human) (UniProt P53355)
MLTK (human) = MLTK (human) (UniProt Q9NYL2)
PRKACA (human) = PRKACA (human) (UniProt P17612)
RIOK3 (human) = RIOK3 (human) (UniProt O14730)
CSNK1G1 (human) = CSNK1G1 (human) (UniProt Q9HCP0)
PDGFRA (human) = PDGFRA (human) (UniProt P16234)
EPHA8 (human) = EPHA8 (human) (UniProt P29322)
NEK9 (human) = NEK9 (human) (UniProt Q8TD19)
ANKK1 (human) = ANKK1 (human) (UniProt Q8NFD2)
LATS1 (human) = LATS1 (human) (UniProt O95835)
GSK3A (human) = GSK3A (human) (UniProt P49840)
PIK3CB (human) = PIK3CB (human) (UniProt P42338)
CAMKK2 (human) = CAMKK2 (human) (UniProt Q96RR4)
TLK2 (human) = TLK2 (human) (UniProt Q86UE8)
AURKB (human) = AURKB (human) (UniProt Q96GD4)
PLK1 (human) = PLK1 (human) (UniProt P53350)
PHKG2 (human) = PHKG2 (human) (UniProt P15735)
LYN (human) = LYN (human) (UniProt P07948)
RPS6KA6 KD2 (human) = RPS6KA6 KD2 (human) (UniProt Q9UK32)
CDK14 (human) = CDK14 (human) (UniProt O94921)
ADCK4 (human) = ADCK4 (human) (UniProt Q96D53)
CDK16 (human) = CDK16 (human) (UniProt Q00536)
NEK1 (human) = NEK1 (human) (UniProt Q96PY6)
RET (human) = RET (human) (UniProt P07949)

Sequence of ADCK4 (human) (Q96D53 whole entry, looked up): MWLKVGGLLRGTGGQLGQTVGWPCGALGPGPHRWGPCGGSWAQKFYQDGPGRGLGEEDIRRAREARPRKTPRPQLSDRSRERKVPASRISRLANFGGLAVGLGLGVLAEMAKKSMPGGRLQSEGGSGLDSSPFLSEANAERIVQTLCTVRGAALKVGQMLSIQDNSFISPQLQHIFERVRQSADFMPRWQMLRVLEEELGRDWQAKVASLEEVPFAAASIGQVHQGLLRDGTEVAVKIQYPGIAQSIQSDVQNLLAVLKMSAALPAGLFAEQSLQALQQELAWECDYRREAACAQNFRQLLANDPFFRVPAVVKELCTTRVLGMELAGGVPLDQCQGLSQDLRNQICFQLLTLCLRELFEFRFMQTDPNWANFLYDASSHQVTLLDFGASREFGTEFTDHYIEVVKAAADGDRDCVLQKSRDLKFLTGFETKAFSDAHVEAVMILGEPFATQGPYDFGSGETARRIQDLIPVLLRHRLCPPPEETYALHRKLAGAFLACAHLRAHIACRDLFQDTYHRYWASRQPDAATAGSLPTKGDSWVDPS
Sequence of PDGFRA (human) (P16234 whole entry, looked up): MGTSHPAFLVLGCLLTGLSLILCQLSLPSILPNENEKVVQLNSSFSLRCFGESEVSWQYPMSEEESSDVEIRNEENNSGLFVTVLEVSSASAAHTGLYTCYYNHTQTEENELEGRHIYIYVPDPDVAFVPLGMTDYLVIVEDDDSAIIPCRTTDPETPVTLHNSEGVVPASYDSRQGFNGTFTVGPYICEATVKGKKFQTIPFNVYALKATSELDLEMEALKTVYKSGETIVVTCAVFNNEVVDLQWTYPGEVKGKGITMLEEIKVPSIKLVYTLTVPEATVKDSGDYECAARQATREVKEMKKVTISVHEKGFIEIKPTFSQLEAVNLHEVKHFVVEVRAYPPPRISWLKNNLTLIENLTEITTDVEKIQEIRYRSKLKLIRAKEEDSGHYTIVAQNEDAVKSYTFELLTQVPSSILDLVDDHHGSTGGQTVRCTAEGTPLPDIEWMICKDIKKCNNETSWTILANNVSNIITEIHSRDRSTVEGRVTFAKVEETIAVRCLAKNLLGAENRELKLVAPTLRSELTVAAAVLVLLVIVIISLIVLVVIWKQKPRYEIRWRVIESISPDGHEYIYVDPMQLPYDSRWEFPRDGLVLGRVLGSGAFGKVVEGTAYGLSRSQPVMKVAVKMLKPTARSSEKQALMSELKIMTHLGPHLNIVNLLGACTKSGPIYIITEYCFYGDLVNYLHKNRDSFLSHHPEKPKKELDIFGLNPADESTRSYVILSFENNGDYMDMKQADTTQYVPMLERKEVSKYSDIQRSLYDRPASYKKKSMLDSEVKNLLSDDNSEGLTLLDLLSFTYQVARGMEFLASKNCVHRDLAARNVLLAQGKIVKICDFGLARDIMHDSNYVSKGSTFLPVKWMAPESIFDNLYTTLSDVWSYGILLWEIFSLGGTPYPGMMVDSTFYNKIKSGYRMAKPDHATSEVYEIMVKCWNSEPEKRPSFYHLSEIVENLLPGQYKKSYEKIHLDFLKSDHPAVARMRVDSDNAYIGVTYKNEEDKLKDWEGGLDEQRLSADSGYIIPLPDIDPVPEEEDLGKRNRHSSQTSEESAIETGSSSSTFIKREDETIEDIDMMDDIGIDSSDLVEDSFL
Sequence of PIK3CB (human) (P42338 whole entry, looked up): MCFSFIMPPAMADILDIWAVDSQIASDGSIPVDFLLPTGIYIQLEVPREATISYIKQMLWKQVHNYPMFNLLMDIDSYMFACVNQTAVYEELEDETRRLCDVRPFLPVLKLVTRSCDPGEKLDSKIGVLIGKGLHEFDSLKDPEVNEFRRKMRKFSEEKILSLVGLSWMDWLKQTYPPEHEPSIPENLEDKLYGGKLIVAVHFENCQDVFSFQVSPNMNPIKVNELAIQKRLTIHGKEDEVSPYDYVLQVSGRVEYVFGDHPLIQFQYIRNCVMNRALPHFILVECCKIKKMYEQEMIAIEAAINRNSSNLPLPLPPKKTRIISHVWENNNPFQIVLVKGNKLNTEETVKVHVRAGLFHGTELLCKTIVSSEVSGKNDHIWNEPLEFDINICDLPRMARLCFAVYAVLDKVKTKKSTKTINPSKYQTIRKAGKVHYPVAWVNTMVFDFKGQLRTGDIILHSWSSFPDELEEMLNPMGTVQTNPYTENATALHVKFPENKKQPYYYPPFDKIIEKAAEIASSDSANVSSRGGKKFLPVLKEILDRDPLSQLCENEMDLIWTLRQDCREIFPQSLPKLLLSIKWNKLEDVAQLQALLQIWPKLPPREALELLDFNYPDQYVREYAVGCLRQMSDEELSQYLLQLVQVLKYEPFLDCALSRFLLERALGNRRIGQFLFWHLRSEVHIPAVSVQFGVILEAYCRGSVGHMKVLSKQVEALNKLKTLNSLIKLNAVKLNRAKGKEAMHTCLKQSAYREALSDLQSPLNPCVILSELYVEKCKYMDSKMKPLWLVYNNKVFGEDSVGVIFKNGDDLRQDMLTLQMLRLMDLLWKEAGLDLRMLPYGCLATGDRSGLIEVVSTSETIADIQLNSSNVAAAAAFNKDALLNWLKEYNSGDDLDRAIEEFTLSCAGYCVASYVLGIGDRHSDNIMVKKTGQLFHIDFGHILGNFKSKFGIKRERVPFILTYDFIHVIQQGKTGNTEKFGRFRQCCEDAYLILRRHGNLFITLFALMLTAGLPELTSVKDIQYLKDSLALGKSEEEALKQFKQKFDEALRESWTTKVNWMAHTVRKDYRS
Sequence of PHKG1 (human) (Q16816 whole entry, looked up): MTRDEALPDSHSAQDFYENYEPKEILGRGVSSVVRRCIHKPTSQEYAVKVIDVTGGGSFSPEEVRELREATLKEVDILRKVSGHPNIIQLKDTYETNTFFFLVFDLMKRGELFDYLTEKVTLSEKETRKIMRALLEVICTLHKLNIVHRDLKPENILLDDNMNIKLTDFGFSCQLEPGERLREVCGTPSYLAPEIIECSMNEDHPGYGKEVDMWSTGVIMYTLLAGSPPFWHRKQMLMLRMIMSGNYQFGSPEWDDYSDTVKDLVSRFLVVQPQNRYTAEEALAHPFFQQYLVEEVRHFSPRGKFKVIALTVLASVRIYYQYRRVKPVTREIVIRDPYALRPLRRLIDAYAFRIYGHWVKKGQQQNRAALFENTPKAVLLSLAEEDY
Sequence of NEK9 (human) (Q8TD19 whole entry, looked up): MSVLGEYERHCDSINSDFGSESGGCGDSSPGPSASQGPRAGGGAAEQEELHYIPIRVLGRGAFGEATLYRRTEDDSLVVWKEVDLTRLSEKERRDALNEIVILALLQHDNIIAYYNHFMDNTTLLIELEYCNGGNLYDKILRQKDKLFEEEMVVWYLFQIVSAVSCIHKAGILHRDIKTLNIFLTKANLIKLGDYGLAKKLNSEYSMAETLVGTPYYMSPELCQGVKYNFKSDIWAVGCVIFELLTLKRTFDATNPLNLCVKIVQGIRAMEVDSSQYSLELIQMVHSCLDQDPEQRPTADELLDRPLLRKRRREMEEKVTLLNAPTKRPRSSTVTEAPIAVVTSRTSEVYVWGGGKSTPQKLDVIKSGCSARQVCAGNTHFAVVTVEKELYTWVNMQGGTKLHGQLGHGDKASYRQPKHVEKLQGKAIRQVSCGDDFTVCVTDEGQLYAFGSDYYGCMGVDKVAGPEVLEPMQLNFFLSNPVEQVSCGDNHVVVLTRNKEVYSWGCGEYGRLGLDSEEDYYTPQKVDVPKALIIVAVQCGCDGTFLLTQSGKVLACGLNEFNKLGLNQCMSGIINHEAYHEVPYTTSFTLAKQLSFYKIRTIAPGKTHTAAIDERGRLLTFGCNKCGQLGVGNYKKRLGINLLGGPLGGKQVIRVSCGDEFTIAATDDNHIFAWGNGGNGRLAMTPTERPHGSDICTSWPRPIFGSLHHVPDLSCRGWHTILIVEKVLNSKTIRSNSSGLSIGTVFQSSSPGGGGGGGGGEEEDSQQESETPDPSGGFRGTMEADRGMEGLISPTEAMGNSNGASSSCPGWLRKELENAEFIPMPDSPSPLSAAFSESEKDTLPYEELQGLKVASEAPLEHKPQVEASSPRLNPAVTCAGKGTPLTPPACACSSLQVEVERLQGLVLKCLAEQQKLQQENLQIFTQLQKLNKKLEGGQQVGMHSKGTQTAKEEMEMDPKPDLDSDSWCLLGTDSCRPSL
Sequence of CDK14 (human) (O94921 whole entry, looked up): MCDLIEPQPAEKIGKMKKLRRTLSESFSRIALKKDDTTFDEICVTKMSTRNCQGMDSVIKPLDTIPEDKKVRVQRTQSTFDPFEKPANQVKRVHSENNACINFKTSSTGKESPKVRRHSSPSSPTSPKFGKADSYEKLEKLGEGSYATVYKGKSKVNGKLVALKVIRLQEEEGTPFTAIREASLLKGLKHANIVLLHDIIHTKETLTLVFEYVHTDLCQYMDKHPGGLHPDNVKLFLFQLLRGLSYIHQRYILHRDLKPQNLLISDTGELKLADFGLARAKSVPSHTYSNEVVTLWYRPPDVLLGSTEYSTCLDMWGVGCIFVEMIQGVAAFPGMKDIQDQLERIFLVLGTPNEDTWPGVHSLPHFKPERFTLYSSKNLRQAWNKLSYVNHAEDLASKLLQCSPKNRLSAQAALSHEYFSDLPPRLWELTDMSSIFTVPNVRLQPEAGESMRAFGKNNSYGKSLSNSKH
Sequence of PHKG2 (human) (P15735 whole entry, looked up): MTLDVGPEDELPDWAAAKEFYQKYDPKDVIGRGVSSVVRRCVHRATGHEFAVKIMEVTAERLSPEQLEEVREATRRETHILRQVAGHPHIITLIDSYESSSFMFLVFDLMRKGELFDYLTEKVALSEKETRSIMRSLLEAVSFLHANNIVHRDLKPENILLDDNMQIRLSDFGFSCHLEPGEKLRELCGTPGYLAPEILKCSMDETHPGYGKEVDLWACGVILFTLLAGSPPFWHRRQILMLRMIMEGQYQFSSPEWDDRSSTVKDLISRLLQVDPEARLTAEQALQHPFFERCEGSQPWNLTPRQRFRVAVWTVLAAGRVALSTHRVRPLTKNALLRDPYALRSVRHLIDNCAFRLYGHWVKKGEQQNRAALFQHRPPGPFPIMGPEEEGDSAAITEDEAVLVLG

Structure (SMILES): CCC(=O)N1CCN(c2ccc(-n3c(=O)ccc4cnc5ccc(-c6cnc7ccccc7c6)cc5c43)cc2C(F)(F)F)CC1
- kinase still bound, per cent of control (CDK7 (human)): 57%
- kinase still bound, per cent of control (PHKG1 (human)): 100%
- kinase still bound, per cent of control (CSNK1D (human)): 4.3%
- kinase still bound, per cent of control (ACVR1 (human)): 28%
- kinase still bound, per cent of control (ACVR2B (human)): 42%
- kinase still bound, per cent of control (MYO3A (human)): 100%
- kinase still bound, per cent of control (PAK2 (human)): 100%
- kinase still bound, per cent of control (NUAK1 (human)): 100%
- kinase still bound, per cent of control (ULK1 (human)): 100%
- kinase still bound, per cent of control (PTK2B (human)): 100%
- kinase still bound, per cent of control (DCLK2 (human)): 100%
- kinase still bound, per cent of control (TGFBR1 (human)): 70%
- kinase still bound, per cent of control (MAP3K4 (human)): 47%
- kinase still bound, per cent of control (MAP3K11 (human)): 69%
- kinase still bound, per cent of control [1]: 65%
- kinase still bound, per cent of control (STK25 (human)): 84%
- kinase still bound, per cent of control (DAPK1 (human)): 96%
- kinase still bound, per cent of control (MLTK (human)): 22%
- kinase still bound, per cent of control (PRKACA (human)): 79%
- kinase still bound, per cent of control (RIOK3 (human)): 90%
- kinase still bound, per cent of control (CSNK1G1 (human)): 100%
- kinase still bound, per cent of control (PDGFRA (human)): 63%
- kinase still bound, per cent of control (EPHA8 (human)): 71%
- kinase still bound, per cent of control (NEK9 (human)): 100%
- kinase still bound, per cent of control (ANKK1 (human)): 93%
- kinase still bound, per cent of control (LATS1 (human)): 100%
- kinase still bound, per cent of control (GSK3A (human)): 93%
- kinase still bound, per cent of control (PIK3CB (human)): 65%
- kinase still bound, per cent of control (CAMKK2 (human)): 85%
- kinase still bound, per cent of control (TLK2 (human)): 100%
- kinase still bound, per cent of control (AURKB (human)): 82%
- kinase still bound, per cent of control (PLK1 (human)): 85%
- kinase still bound, per cent of control (PHKG2 (human)): 100%
- kinase still bound, per cent of control (LYN (human)): 79%
- kinase still bound, per cent of control (RPS6KA6 KD2 (human)): 86%
- kinase still bound, per cent of control (CDK14 (human)): 99%
- kinase still bound, per cent of control (ADCK4 (human)): 15%
- kinase still bound, per cent of control (CDK16 (human)): 91%
- kinase still bound, per cent of control (NEK1 (human)): 89%
- kinase still bound, per cent of control (RET (human)): 44%
